# “Also recorded” adds a separate entry of the source.
# How the values were obtained:
# [1] = test system: SARS-CoV-2 2019-nCoV/USA-WA1/2020 strain; assay: Lung viral load by qPCR in infected human ACE2 transgenic mice; format: in vivo; settings: mice infected with 100 or 1000 pfu; 300 mg/kg daily oral gavage; 7, 14, 21 days; vs vehicle and remdesivir (FIGS. 13-14)
# [2] = test system: SARS-CoV-2 infected lung tissue; assay: Lung fibrosis by H&E staining in infected human ACE2 transgenic mice; format: in vivo; settings: infected mouse lung tissue 7, 14, 21 days after infection; vs vehicle (FIG. 16)
# [3] = test system: SARS-CoV-2; assay: In vitro SARS-CoV-2 model in primary human airway epithelial cells, viral load by qRT-PCR; format: cell-based; settings: 5 μM and 25 μM, read at 24 and 48 hours (FIGS. 11-12)
# Method: A 50 mM stock solution of Compound 2 (in DMSO) was diluted using PBS to concentrations of 100, 75, 50, 25, 10, 5, 1, 0.3, 0.1, and 0.03 μM. About 30,000 immortalized human airway epithelial cells (Calu-3) (see, FIG. 1-10) or primary human airway epithelial cells (Normal Human Small Airway Epithelial Cells; Sigma) (see, FIGS. 11-12) were grown to about 100,000 cells per well in a 96-well format. The cells were challenged with 10^2 or 10^3 PFU SARS-CoV-2 (standard CDC SARS-CoV-2 strain) in triplicate and incubated for 6 h at 37° C., followed by washing. The cells were then treated with Compound 2 or negative control by adding 10 μL of a solution of Compound 2 (0.03-100 μM) or negative control solution (DMSO in PBS) in triplicate and incubating for 2 h at 37° C. A positive control consisted of remdesivir (RDV; 10 μM). […] The cells were maintained until the second endpoint readout at 48 h (the first occurring at 24 h post-infection). […]
# Viral infection/load was analyzed by qPCR (qRT-PCR). […] Viral or host RNA levels in the supernatant were determined using the TaqPath™ 1-Step RT-qPCR Master Mix (Thermo Fisher) on a CFX Connect Real-Time System (Bio-Rad) instrument using the following primers: Fwd: 5′-[…]-3′; Rev. […]
# Datasets were analyzed and plotted in GraphPad Prism (version 9.0.2). […]
# [4] = test system: Calu-3 cells; assay: Cellular toxicity: LDH assay; format: cell-based, human; settings: 0.03-100 μM, LDH assay at 48 h (FIGS. 4-5)
# Method: The toxicity of Compound 2 was measured at concentrations of 0.1, 0.3, 1, 10, 25, 50, 75, and 100 μM in Calu-3 cells by LDH ([…] dehydrogenase) assay (Clontech) according to the manufacturer's instructions. A positive control consisted of saponin (0.5%). A negative control consisted of DMSO (0.2%).
# [5] = test system: SARS-CoV-2; assay: 7-day clinical trial in patients with mild to moderate COVID-19; format: in vivo
# [6] = test system: SARS-CoV-2; assay: In vitro SARS-CoV-2 model in immortalized human airway epithelial cells (Calu-3), viral load by qRT-PCR; format: cell-based; settings: for inhibition of viral replication (viral titers): 10 μM
# Method: A 50 mM stock solution of Compound 2 (in DMSO) was diluted using PBS to concentrations of 100, 75, 50, 25, 10, 5, 1, 0.3, 0.1, and 0.03 μM. About 30,000 immortalized human airway epithelial cells (Calu-3) (see, FIG. 1-10) or primary human airway epithelial cells (Normal Human Small Airway Epithelial Cells; Sigma) (see, FIGS. 11-12) were grown to about 100,000 cells per well in a 96-well format. The cells were challenged with 10^2 or 10^3 PFU SARS-CoV-2 (standard CDC SARS-CoV-2 strain) in triplicate and incubated for 6 h at 37° C., followed by washing. The cells were then treated with Compound 2 or negative control by adding 10 μL of a solution of Compound 2 (0.03-100 μM) or negative control solution (DMSO in PBS) in triplicate and incubating for 2 h at 37° C. A positive control consisted of remdesivir (RDV; 10 μM). An additional control (3 wells) was treated with Compound 2 at the highest concentration, but not challenged with virus. The cells were maintained until the second endpoint readout at 48 h (the first occurring at 24 h post-infection). In some instances, the cellular media was replaced 24 h after infection with untreated culture medium (“unmediated medium”) or culture medium containing the positive control (RDV) or Compound 2 (“mediated medium”), see, FIG. 10.
# Viral infection/load was analyzed by qPCR (qRT-PCR). RNA from cells was extracted with TRIzol reagent (Thermo Fisher) according to manufacturer's instructions. Viral or host RNA levels in the supernatant were determined using the TaqPath™ 1-Step RT-qPCR Master Mix (Thermo Fisher) on a CFX Connect Real-Time System (Bio-Rad) instrument using the following primers: Fwd: 5′-[…]-3′; Rev. 5′-[…]-3′.
# Datasets were analyzed and plotted in GraphPad Prism (version 9.0.2). Analytic simulations of dose-response curves using the median-effect principle and mass-action Law were carried out using CompuSyn (https://www.combosyn.com/).
smiles,measurement,setting,value
"Cn1c(C(=O)N2CC(F)(F)C2)cc2ccc(-c3nccc(Nc4ccc(-c5cn[nH]c5)cc4)n3)cc21 [Compound 2, (6-(4-((4-(1H-pyrazol-4-yl)phenyl)amino)pyrimidin-2-yl)-1-methyl-1H-indol-2-yl)(3,3-difluoroazetidin-1-yl)methanone]",viral load in the lung,[1],significantly reduced viral load
same,pulmonary fibrosis (histology),[2],reducing pulmonary fibrosis; also recorded: reduces lung fibrosis
same,efficacy against SARS-CoV-2 infection (viral concentration),[3],efficacy at 5 μM and 25 μM concentrations
same,cellular toxicity by LDH,[4],low cellular toxicity
same,clinical efficacy in treating mild to moderate COVID-19,[5]; 200 mg or 400 mg once daily for 7 days plus standard of care (FIGS. 17-20),clinical efficacy
same,"viral titers, as negative conversion rates of SARS-CoV-2 nucleic acid detection","[5]; 200 mg or 400 mg once daily for 7 days, relative to Control (FIG. 18)",lower viral titers
same,"inflammation, as levels of interleukin 6",[5]; 200 mg/day and 400 mg/day (FIG. 19),reduced levels of inflammation
same,"inflammation, as levels of C-reactive protein (CRP)",[5]; 200 mg/day and 400 mg/day (FIG. 20),reduced levels of inflammation
same,relief rate of sustained clinical symptoms,"[5]; 400 mg once daily for 7 days, relative to Control and to 200 mg (FIG. 17)",substantial improvement
same,inhibition of viral replication (viral titers),"[6]; Calu-3, read at 24 and 48 hours, compared to negative control (0.1% DMSO) and positive control (RDV) (FIGS. 6-7)",inhibiting viral replication
same,inhibition of viral replication (viral titers),"[6]; Calu-3, read at 24 and 48 hours, treated 0, 2, 4, 8 h post-infection, compared to control (FIGS. 1-3)",inhibiting viral replication
same,dose response of inhibition of viral replication,"[6]; Calu-3, 1, 5, 10 and 25 μM, read at 24 and 48 hours, given 0-10 h after infection (FIGS. 8A-9F)",Dose responses were observed at all time points
same,viral concentration after repeat dosing,"[6]; Calu-3, 48 h after infection, medium containing compound replenished at 24 h (FIG. 10)",further decreased viral concentration
same,viral titers of SARS-CoV-2,"[6]; immortalized human airway epithelial cells infected with SARS-CoV-2, FIGS. 1-12",substantially reduce viral titers
